Reference: the supplement of paper PMC11451515

System: SEM cells
Assay: cell viability relative to DMSO control; higher = less cytotoxic
Conditions: 48 h
Summary of the method: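 Viability, reported as a per-plate percentage of DMSO wells with cell-free wells as background, came from CellTiter-Glo One luminescence. Reading took place after 48 h at 37°C. Before that, NOMO1 or SEM (500 cells/well) or P12-Ichikawa (1000 cells/well) leukemia cells, adapted for at least four passages in each medium, were seeded in 1536-well plates (5 μl) and pin-dosed with library compounds in DMSO, 47 μM to 0.79 nM over 11 threefold points.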

[1] = HPLM + 10% dialyzed FBS, 0.000781 µM
[2] = HPLM + 10% dialyzed FBS, 0.00234 µM
[3] = HPLM + 10% dialyzed FBS, 0.00702 µM
[4] = HPLM + 10% dialyzed FBS, 0.0211 µM
[5] = HPLM + 10% dialyzed FBS, 0.0632 µM
[6] = HPLM + 10% dialyzed FBS, 0.19 µM
[7] = HPLM + 10% dialyzed FBS, 0.569 µM
[8] = HPLM + 10% dialyzed FBS, 1.71 µM
[9] = HPLM + 10% dialyzed FBS, 5.12 µM
[10] = HPLM + 10% dialyzed FBS, 15.4 µM
[11] = HPLM + 10% dialyzed FBS, 46.1 µM
[12] = RPMI 5 mM glucose + 10% FBS, 0.000781 µM
[13] = RPMI 5 mM glucose + 10% FBS, 0.00234 µM
[14] = RPMI 5 mM glucose + 10% FBS, 0.00702 µM
[15] = RPMI 5 mM glucose + 10% FBS, 0.0211 µM
[16] = RPMI 5 mM glucose + 10% FBS, 0.0632 µM
[17] = RPMI 5 mM glucose + 10% FBS, 0.19 µM
[18] = RPMI 5 mM glucose + 10% FBS, 0.569 µM
[19] = RPMI 5 mM glucose + 10% FBS, 1.71 µM
[20] = RPMI 5 mM glucose + 10% FBS, 5.12 µM
[21] = RPMI 5 mM glucose + 10% FBS, 15.4 µM
[22] = RPMI 5 mM glucose + 10% FBS, 46.1 µM
[23] = RPMI 5 mM glucose + 10% dialyzed FBS, 0.000781 µM
[24] = RPMI 5 mM glucose + 10% dialyzed FBS, 0.00234 µM
[25] = RPMI 5 mM glucose + 10% dialyzed FBS, 0.00702 µM
[26] = RPMI 5 mM glucose + 10% dialyzed FBS, 0.0211 µM
[27] = RPMI 5 mM glucose + 10% dialyzed FBS, 0.0632 µM
[28] = RPMI 5 mM glucose + 10% dialyzed FBS, 0.19 µM
[29] = RPMI 5 mM glucose + 10% dialyzed FBS, 0.569 µM
[30] = RPMI 5 mM glucose + 10% dialyzed FBS, 1.71 µM
[31] = RPMI 5 mM glucose + 10% dialyzed FBS, 5.12 µM
[32] = RPMI 5 mM glucose + 10% dialyzed FBS, 15.4 µM
[33] = RPMI 5 mM glucose + 10% dialyzed FBS, 46.1 µM

In the case of `CC(C)(O)CNc1nc(Nc2ccnc(C(F)(F)F)c2)nc(-c2cccc(C(F)(F)F)n2)n1`, the cell viability [1] is reported as 106%, the cell viability [2] is reported as 89% and the cell viability [3] is reported as 101%. It also gave a cell viability [4] of 105%, a cell viability [5] of 91.3% and a cell viability [6] of 109%. The cell viability [7] was 110%, the cell viability [8] was 93.5% and the cell viability [9] was 67.2%. The cell viability [10] was 33.1%, the cell viability [11] was 24.6% and the cell viability [12] was 99.5%. The cell viability [13] was 84.7%, the cell viability [14] was 119% and the cell viability [15] was 107%. It also gave a cell viability [16] of 80.7%, a cell viability [17] of 122% and a cell viability [18] of 117%. For the same molecule, the cell viability [19] was 64.7%, the cell viability [20] was 31.3% and the cell viability [21] was 15.8%. For the same molecule, the cell viability [22] was 14.6%, the cell viability [23] was 105% and the cell viability [24] was 89.8%. It also gave a cell viability [25] of 112%, a cell viability [26] of 107% and a cell viability [27] of 106%. The cell viability [28] was 114%, the cell viability [29] was 122% and the cell viability [30] was 88.7%. The cell viability [31] was 44.6%, the cell viability [32] was 21.4% and the cell viability [33] was 14.7%.
Molecule `CC1(C)OC/2=C(\[C@H](NCC3=CC=CC=C3)[C@@H]1O)C(=O)C4=CC=CC=C4C2=O` has a cell viability [1] of 103%, a cell viability [2] of 95.6% and a cell viability [3] of 91%. For the same molecule, the cell viability [4] was 115%, the cell viability [5] was 98.4% and the cell viability [6] was 111%. It also gave a cell viability [7] of 106%, a cell viability [8] of 110% and a cell viability [9] of 83.6%. The cell viability [10] was 41.1%, the cell viability [11] was 9.15% and the cell viability [12] was 80.9%. The cell viability [13] was 71.7%, the cell viability [14] was 98.4% and the cell viability [15] was 83.9%. The cell viability [16] was 94.1%, the cell viability [17] was 91.9% and the cell viability [18] was 108%. For the same molecule, the cell viability [19] was 99.7%, the cell viability [20] was 54.2% and the cell viability [21] was 24.5%. It also gave a cell viability [22] of 5.4%, a cell viability [23] of 96.8% and a cell viability [24] of 74.4%. It also gave a cell viability [25] of 109%, a cell viability [26] of 97.7% and a cell viability [27] of 94.4%. It also gave a cell viability [28] of 106%, a cell viability [29] of 109% and a cell viability [30] of 92.5%. The cell viability [31] was 83.4%, the cell viability [32] was 48.1% and the cell viability [33] was 8.42%.
Work on `N=C(N)c1ccc(OCCCCCOc2ccc(C(=N)N)cc2)cc1` yielded a cell viability [1] of 72.7%, a cell viability [2] of 115% and a cell viability [3] of 112%. The cell viability [4] was 125%, the cell viability [5] was 123% and the cell viability [6] was 127%. For the same molecule, the cell viability [7] was 118%, the cell viability [8] was 122% and the cell viability [9] was 106%. The cell viability [10] was 101%, the cell viability [11] was 46.4% and the cell viability [23] was 64.9%. For the same molecule, the cell viability [24] was 111%, the cell viability [25] was 146% and the cell viability [26] was 138%. The cell viability [27] was 121%, the cell viability [28] was 118% and the cell viability [29] was 105%. For the same molecule, the cell viability [30] was 103%, the cell viability [31] was 113% and the cell viability [32] was 120%. For the same molecule, the cell viability [33] was 57.8%.
`COc1ccc2cc(-c3[nH]c(-c4ccc([S+](C)[O-])cc4)nc3-c3ccncc3)ccc2c1` (stereo not drawn) showed a cell viability [1] of 92.4%, a cell viability [2] of 104% and a cell viability [3] of 105%. It also gave a cell viability [4] of 109%, a cell viability [5] of 109% and a cell viability [6] of 114%. For the same molecule, the cell viability [7] was 121%, the cell viability [8] was 107% and the cell viability [9] was 126%. For the same molecule, the cell viability [10] was 127%, the cell viability [11] was 107% and the cell viability [12] was 76.8%. It also gave a cell viability [13] of 105%, a cell viability [14] of 96.3% and a cell viability [15] of 85.9%. The cell viability [16] was 95%, the cell viability [17] was 101% and the cell viability [18] was 101%. The cell viability [19] was 106%, the cell viability [20] was 110% and the cell viability [21] was 111%. The cell viability [22] was 71.9%, the cell viability [23] was 88.6% and the cell viability [24] was 109%. The cell viability [25] was 102%, the cell viability [26] was 105% and the cell viability [27] was 101%. For the same molecule, the cell viability [28] was 116%, the cell viability [29] was 127% and the cell viability [30] was 109%. It also gave a cell viability [31] of 111%, a cell viability [32] of 116% and a cell viability [33] of 88.9%.
Molecule `Cc1cnc(Nc2ccc(OCCN3CCCC3)cc2)nc1Nc1cccc([S+](=O)([O-])NC(C)(C)C)c1` has a cell viability [1] of 83.6%, a cell viability [2] of 93.2% and a cell viability [3] of 93.9%. The cell viability [4] was 88.2%, the cell viability [5] was 96.3% and the cell viability [6] was 89.5%. The cell viability [7] was 96.7%, the cell viability [8] was 102% and the cell viability [9] was 96.1%. For the same molecule, the cell viability [10] was 68.2%, the cell viability [11] was 67.2% and the cell viability [12] was 88.9%. The cell viability [13] was 95.8%, the cell viability [14] was 95.4% and the cell viability [15] was 111%. For the same molecule, the cell viability [16] was 104%, the cell viability [17] was 106% and the cell viability [18] was 108%. For the same molecule, the cell viability [19] was 88.5%, the cell viability [20] was 89.9% and the cell viability [21] was 90.1%. The cell viability [22] was 77.2%, the cell viability [23] was 83.5% and the cell viability [24] was 97.3%. For the same molecule, the cell viability [25] was 98.8%, the cell viability [26] was 106% and the cell viability [27] was 98.2%. It also gave a cell viability [28] of 99.2%, a cell viability [29] of 106% and a cell viability [30] of 98.1%. For the same molecule, the cell viability [31] was 82.4%, the cell viability [32] was 84.5% and the cell viability [33] was 71.9%.
In the case of `Cn1cc(-c2ccncc2)c(-c2ccc(OCc3ccc4ccccc4n3)cc2)n1`, the cell viability [1] is reported as 124%, the cell viability [2] is reported as 127% and the cell viability [3] is reported as 95%. It also gave a cell viability [4] of 134%, a cell viability [5] of 132% and a cell viability [6] of 123%. It also gave a cell viability [7] of 116%, a cell viability [8] of 124% and a cell viability [9] of 125%. The cell viability [10] was 110%, the cell viability [11] was 110% and the cell viability [12] was 123%. For the same molecule, the cell viability [13] was 126%, the cell viability [14] was 102% and the cell viability [15] was 118%. For the same molecule, the cell viability [16] was 118%, the cell viability [17] was 125% and the cell viability [18] was 122%. For the same molecule, the cell viability [19] was 124%, the cell viability [20] was 95.3% and the cell viability [21] was 81.1%. It also gave a cell viability [22] of 82.4%, a cell viability [23] of 94.6% and a cell viability [24] of 108%. The cell viability [25] was 89.7%, the cell viability [26] was 112% and the cell viability [27] was 98%. The cell viability [28] was 102%, the cell viability [29] was 112% and the cell viability [30] was 110%. For the same molecule, the cell viability [31] was 103%, the cell viability [32] was 96.8% and the cell viability [33] was 64.3%.
In the case of `CCOC(=O)c1ccc(C#Cc2ccc3c(c2)C(C)(C)CCS3)nc1`, the cell viability [1] is reported as 105%, the cell viability [2] is reported as 105% and the cell viability [3] is reported as 109%. The cell viability [4] was 116%, the cell viability [5] was 111% and the cell viability [6] was 75.4%. It also gave a cell viability [7] of 114%, a cell viability [8] of 118% and a cell viability [9] of 108%. The cell viability [10] was 114%, the cell viability [11] was 102% and the cell viability [12] was 98%. For the same molecule, the cell viability [13] was 121%, the cell viability [14] was 122% and the cell viability [15] was 126%. The cell viability [16] was 118%, the cell viability [17] was 75.6% and the cell viability [18] was 121%. The cell viability [19] was 122%, the cell viability [20] was 116% and the cell viability [21] was 108%. The cell viability [22] was 113%, the cell viability [23] was 89.2% and the cell viability [24] was 100%. The cell viability [25] was 101%, the cell viability [26] was 98.1% and the cell viability [27] was 106%. The cell viability [28] was 66.4%, the cell viability [29] was 99.5% and the cell viability [30] was 94.8%. It also gave a cell viability [31] of 90%, a cell viability [32] of 89.3% and a cell viability [33] of 93.5%.
With `CN1C(=O)COc2c(C(=O)NC3CN4CCC3CC4)cc(Cl)cc21` (stereo not drawn) the cell viability [1] was 114%, the cell viability [2] was 112% and the cell viability [3] was 119%. For the same molecule, the cell viability [4] was 100%, the cell viability [5] was 116% and the cell viability [6] was 101%. The cell viability [7] was 118%, the cell viability [8] was 101% and the cell viability [9] was 112%. For the same molecule, the cell viability [10] was 105%, the cell viability [11] was 101% and the cell viability [12] was 91.7%. For the same molecule, the cell viability [13] was 93.7%, the cell viability [14] was 94% and the cell viability [15] was 96.6%. For the same molecule, the cell viability [16] was 104%, the cell viability [17] was 95.7% and the cell viability [18] was 109%. For the same molecule, the cell viability [19] was 90.6%, the cell viability [20] was 88.5% and the cell viability [21] was 95.5%. For the same molecule, the cell viability [22] was 84.9%, the cell viability [23] was 116% and the cell viability [24] was 120%. The cell viability [25] was 125%, the cell viability [26] was 122% and the cell viability [27] was 118%. It also gave a cell viability [28] of 126%, a cell viability [29] of 107% and a cell viability [30] of 109%. It also gave a cell viability [31] of 97.6%, a cell viability [32] of 131% and a cell viability [33] of 124%.
